Data published in article PMC10786919, “Design-rules for stapled peptides with in vivo activity and their application to Mdm2/X antagonists” (Nature Communications, 2024).
Where “and” joins values, the source holds several entries; their conditions need not be identical. Identical values can stand only once. Like-named read-outs stand apart in the source and are kept apart here. Positions of bridges follow the written chain, without caps; N, C: chain ends. Non-standard residues stand in square brackets, D forms with d. Residues, ends and D or L forms follow the SMILES beside them. dPhe(4-CF3) = N[C@H](Cc1ccc(C(F)(F)F)cc1)C(=O)O; dTrp(6-F) = N[C@H](Cc1c[nH]c2cc(F)ccc12)C(=O)O; Lys(N3) = [N-]=[N+]=NCCCC[C@H](N)C(=O)O; R8 = C=CCCCCCC[C@@](C)(N)C(=O)O; Cba = N[C@@H](CC1CCC1)C(=O)O; R5 = C=CCCC[C@@](C)(N)C(=O)O; S5 = C=CCCC[C@](C)(N)C(=O)O; βAla = NCCC(=O)O

Tests used:
[1] = test system: Ca Ski cell line
In short: (§1)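 Compound dilution series (10 points, 3-fold, 10 mM top stock in DMSO) tested on overnight-plated Ca Ski cells in RPMI1640/10% FBS and on blasticidin-selected p53RE-bla HCT-116 cells in McCoy's 5A; read-out was CellTiter-Glo 2.0 luminescence after room-temperature equilibration.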

[2] = test system: CellSensor p53RE-bla HCT-116 Cell Line
In short: as §1

[3] = test system: Jump-In T-REx CHO-K1 BLA cells; assay: cells; assay type: cell-based
[4] = Nanoclick permeability assay
In short: (§2)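 Azido-peptide permeability was read as loss of NanoBRET signal (donor 450 nm, acceptor 610 nm) after adding NanoBret618-azide at 10 μM final.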

[5] = test system: cells transiently transfected with the NanoLuc-HaloTag vector; assay: Nanoclick permeability assay; conditions: 4Hr
In short: as §2

[6] = test system: p53 responsive β-lactamase reporter in HCT116 cells; assay: cells; assay type: cell-based
In short: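 HCT116 cells stably carrying a p53-responsive β-lactamase reporter, seeded at 8000 cells/well, with 0.5% DMSO final. Reporter activity read by ToxBLAzer Dual Screen. Values are geometric means of at least three biological replicates.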

[7] = Circular dichroism (CD) helicity; assay type: physicochemical
In short: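 Peptide dried from methanol and reconstituted at 1 mM in 1 mM HEPES pH 7.4 with 5% methanol; concentration set by A280. CD spectra recorded 300–190 nm at 25 °C in a 0.2 cm cuvette, converted to mean residue ellipticity and deconvoluted for secondary structure; duplicate means.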

[8] = read-out: Cell Proliferation assay EC50, Ca-Ski, p53 Mut, Ca-Ski
[9] = read-out: Cell Proliferation assay EC50, HCT116, p53 WT, HCT116
[10] = 0% FBS 4Hr, read-out: TETCHO: Counterscreen EC50
[11] = 10% FBS 16Hr, read-out: TETCHO: Counterscreen EC50
[12] = 0% FBS 4Hr, read-out: p53 reporter assay EC50
[13] = 10% FBS 16Hr, read-out: p53 reporter assay EC50
[14] = Nanoclick permeability assay EC50
[15] = read-out: Cell EC50 (4 hr, 0% FBS), p53 reporter assay, 4 hr, 0% FBS
[16] = read-out: Cell EC50 (16 hr, 10% FBS), p53 reporter assay, 16 hr, 10% FBS
[17] = 0% FBS 16Hr, read-out: p53 reporter assay EC50
[18] = 10% FBS 4Hr, read-out: p53 reporter assay EC50

Compound	EC50 [1, 8] [µM]	EC50 [2, 9] [µM]	TETCHO: Counterscreen % Effect ([3]; 0% FBS 4Hr) [%]	EC50 [3, 10] [µM]	TETCHO: Counterscreen % Effect ([3]; 10% FBS 16Hr) [%]	EC50 [3, 11] [µM]	cell entry EC50 [4] [µM]	Nanoclick permeability assay % Effect [5] [%]	p53 reporter assay % Effect ([6]; 0% FBS 4Hr) [%]	EC50 [6, 12] [µM]	p53 reporter assay % Effect ([6]; 10% FBS 16Hr) [%]	EC50 [6, 13] [µM]	CD % Helicity [7] [%]	other results
CC(C)C[C@@H](NC(=O)[C@@]1(C)CCCC=CCCC[C@@](C)(NC(=O)[C@@H](C)NC(=O)[C@@H](Cc2ccc(O)cc2)NC(=O)[C@@H](Cc2c[nH]c3cc(F)ccc23)NC(=O)[C@@H](C)NC(=O)[C@H](N)[C@H](C)O)C(=O)N[C@H](Cc2ccc(C(F)(F)F)cc2)C(=O)N[C@H](CCC(=O)O)C(=O)N[C@H](CCC(N)=O)C(=O)N1)C(=O)N[C@H](CO)C(N)=O [MP-795] (H-[dT][dA][dTrp(6-F)][dY][dA][R5][dPhe(4-CF3)][dE][dQ][R5][dL][dS]-NH2; staple 6-10)	22.5	26.4	35.97	> 50.4	0.2467	> 50.4	> 10	23.68	142.6	5.18	21.51	> 50.4	–	–
CC(=O)N[C@@H](C(=O)N[C@H](C)C(=O)N[C@H](Cc1c[nH]c2cc(F)ccc12)C(=O)N[C@H](Cc1ccc(O)cc1)C(=O)N[C@H](C)C(=O)N[C@]1(C)CCCC=CCCC[C@](C)(C(=O)N[C@H](CC(C)C)C(=O)N[C@H](CO)C(=O)N[C@H](C)C(=O)N[C@H](C)C(=O)N[C@H](C)C(N)=O)NC(=O)[C@@H](CCC(N)=O)NC(=O)[C@@H](CCC(=O)O)NC(=O)[C@@H](Cc2ccc(C(F)(F)F)cc2)NC1=O)[C@H](C)O [MP-0230] (Ac-[dT][dA][dTrp(6-F)][dY][dA][R5][dPhe(4-CF3)][dE][dQ][R5][dL][dS][dA][dA][dA]-NH2; staple 6-10)	–	–	12.86	> 50.4	-3.99	> 50.4	–	30.67	96.81	1.44	84.65	4.34	49.95	cell entry EC50 [4, 14]: > 10 µM
CC(=O)N[C@@H](CCCCN=[N+]=[N-])C(=O)NCCC(=O)N[C@@H](CC(C)C)C(=O)N[C@H](C(=O)N[C@@H](Cc1ccccc1)C(=O)N[C@]1(C)CCCCCCC=CCCC[C@@](C)(C(=O)N2CCC[C@@H]2C(=O)N2CCC[C@@H]2C(=O)N2CCC[C@@H]2C(=O)N2CCC[C@@H]2C(=O)N2CCC[C@@H]2C(=O)N2CCC[C@@H]2C(N)=O)NC(=O)[C@H](CC2CCC2)NC(=O)[C@H](CCC(N)=O)NC(=O)[C@H](C)NC(=O)[C@H](Cc2c[nH]c3ccccc23)NC(=O)[C@H](Cc2ccc(O)cc2)NC(=O)[C@H](CCC(=O)O)NC1=O)[C@@H](C)O [MP-896]	> 49.8	–	-4.745	> 50.4	-12.59	> 50.4	1.42	114.3	–	–	–	–	19.15	p53 reporter assay: % Effect ([6]; 0% FBS 4Hr): 28.91%; EC50 ([6]; 0% FBS 4Hr, read-out: p53 reporter assay: EC50): > 50.4 µM; p53 reporter assay: % Effect ([6]; 10% FBS 16Hr): 32.76%; EC50 ([6]; 10% FBS 16Hr, read-out: p53 reporter assay: EC50): > 50.4 µM; EC50 [6, 15]: > 50 µM; EC50 [6, 16]: > 50 µM; Aqueous solution helicity ([7]; circular dichroism): 19.15%
CC(=O)N[C@@H](C(=O)N[C@H](C)C(=O)N[C@H](Cc1c[nH]c2cc(F)ccc12)C(=O)N[C@H](Cc1ccc(O)cc1)C(=O)N[C@H](C)C(=O)N[C@]1(C)CCCC=CCCC[C@](C)(C(=O)N[C@H](CC(C)C)C(=O)N[C@H](CO)C(=O)N[C@H](C)C(=O)N[C@H](C)C(=O)N[C@H](C)C(=O)N[C@H](C)C(=O)N[C@H](C)C(=O)N[C@H](C)C(N)=O)NC(=O)[C@@H](CCC(N)=O)NC(=O)[C@@H](CCC(=O)O)NC(=O)[C@@H](Cc2ccc(C(F)(F)F)cc2)NC1=O)[C@H](C)O [MP-042] (Ac-[dT][dA][dTrp(6-F)][dY][dA][R5][dPhe(4-CF3)][dE][dQ][R5][dL][dS][dA][dA][dA][dA][dA][dA]-NH2; staple 6-10)	32	4.24	12.4	> 50.4	2.411	> 50.4	> 10	1.941	91.28	0.612	98.03	0.284	57.4	EC50 ([1]; read-out: Proliferation EC50 Ca Ski (Off-target), Ca Ski): 31 µM; EC50 ([2]; read-out: Proliferation EC50 HCT116 (On-target), HCT116): 1.5 µM; EC50 ([3]; 4 hours, 0% serum, read-out: TETCHO Counterscreen EC50): > 50 µM; overall improvement of cellular activity compared to initial parent peptide (MP-769) ([6]; 10% serum, 16-hour): > 178 fold; EC50 [6, 15]: 0.6 µM; EC50 [6, 16]: 0.28 µM and 0.3 µM
CC(=O)N[C@@H](C(=O)N[C@H](C)C(=O)N[C@H](Cc1c[nH]c2cc(F)ccc12)C(=O)N[C@H](Cc1ccc(O)cc1)C(=O)N[C@H](C)C(=O)N[C@]1(C)CCCC=CCCC[C@](C)(C(=O)N[C@H](CC(C)C)C(=O)N[C@H](CO)C(=O)N[C@H](C)C(=O)N[C@H](C)C(=O)N[C@H](C)C(=O)N[C@H](C)C(=O)N[C@H](C)C(=O)N[C@H](C)C(=O)N[C@H](C)C(=O)N[C@H](C)C(=O)N[C@H](C)C(N)=O)NC(=O)[C@@H](CCC(N)=O)NC(=O)[C@@H](CCC(=O)O)NC(=O)[C@@H](Cc2ccc(C(F)(F)F)cc2)NC1=O)[C@H](C)O [MP-1230] (Ac-[dT][dA][dTrp(6-F)][dY][dA][R5][dPhe(4-CF3)][dE][dQ][R5][dL][dS][dA][dA][dA][dA][dA][dA][dA][dA][dA]-NH2; staple 6-10)	> 49.8	21.4	16.32	> 50.4	-1.934	> 50.4	–	–	14.85	> 50.4	35.9	> 50.4	8.3	–
CC(=O)N[C@@H](CC(C)C)C(=O)N[C@H](C(=O)N[C@@H](Cc1ccccc1)C(=O)N[C@]1(C)CCCCCCC=CCCC[C@@](C)(C(=O)N[C@@H](CO)C(=O)N[C@@H](C)C(=O)N[C@@H](C)C(N)=O)NC(=O)[C@@H](CC2CCC2)NC(=O)[C@H](CC(C)C)NC(=O)[C@H](CCC(N)=O)NC(=O)[C@H](Cc2c[nH]c3ccccc23)NC(=O)[C@H](Cc2ccc(O)cc2)NC(=O)[C@H](CCC(=O)O)NC1=O)[C@@H](C)O [MP-009]	–	–	4.797	> 50.6	–	–	–	22.02	–	8.27	–	–	23.85	TETCHO: Counterscreen % Effect ([3]; 0% FBS 16Hr): -1.31%; EC50 [6, 17]: 29.5 µM; EC50 [6, 18]: > 50.6 µM
CC(=O)N[C@@H](CCCCN=[N+]=[N-])C(=O)NCCC(=O)N[C@@H](CC(C)C)C(=O)N[C@H](C(=O)N[C@@H](Cc1ccccc1)C(=O)N[C@]1(C)CCCCCCC=CCCC[C@@](C)(C(=O)N[C@@H](CO)C(=O)N[C@@H](C)C(=O)N[C@@H](C)C(N)=O)NC(=O)[C@H](CC2CCC2)NC(=O)[C@H](CCC(N)=O)NC(=O)[C@H](C)NC(=O)[C@H](Cc2c[nH]c3ccccc23)NC(=O)[C@H](Cc2ccc(O)cc2)NC(=O)[C@H](Cc2c[nH]c3ccccc23)NC1=O)[C@@H](C)O [MP-185] (Ac-[Lys(N3)][βAla]LTF[R8]WYWAQ[Cba][S5]SAA-NH2; staple 6-13)	–	–	4.64	> 50	–	–	–	140.4	–	0.137	–	–	–	EC50 ([1]; 72 h): > 49.8 µM; EC50 ([2]; 72 h): 1.97 µM; TETCHO: Counterscreen % Effect ([3]; 0% FBS 16Hr): 9.8%; cell entry EC50 [4, 14]: 0.0774 µM; EC50 [6, 17]: 0.214 µM; p53 reporter assay % Effect ([6]; 10% FBS 4Hr): 14.92%; EC50 [6, 18]: 1.86 µM
